ChEMBL document CHEMBL5331084, “Structure-based lead optimization of peptide-based vinyl methyl ketones as SARS-CoV-2 main protease inhibitors” (Eur J Med Chem, 2023)
The source made the active and inactive calls. No cut-off for these calls is given here.

Assays:
[1] = molecular target: Replicase polyprotein 1ab (Severe acute respiratory syndrome coronavirus 2, UniProt P0DTD1); assay: Inhibition of SARS-CoV-2 MPro using Dabcyl-KTSAVLQSGFRKME-Edans as substrate assessed as inhibition constant measured for 10 mins by FRET assay
Procathepsin L [2] = molecular target: T1, Procathepsin L (Homo sapiens, UniProt P07711); assay: Covalent irreversible inhibition of human Cathepsin L using Cbz-Phe-Arg-AMC as substrate assessed as reduction in enzyme recovery at 5 fold IC50 preincubated for 60 mins followed by dilution to 1 fold IC50 and substrate addition by fluorescence based assay
Target sequence in this assay (P07711 114-333 limits assumed): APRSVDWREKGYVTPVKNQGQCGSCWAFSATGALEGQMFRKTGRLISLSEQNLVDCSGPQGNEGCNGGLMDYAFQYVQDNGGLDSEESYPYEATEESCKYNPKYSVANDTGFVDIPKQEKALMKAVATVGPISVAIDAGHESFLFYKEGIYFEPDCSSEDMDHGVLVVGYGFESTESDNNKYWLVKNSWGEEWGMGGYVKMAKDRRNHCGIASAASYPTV

Procathepsin L [3] = molecular target: T1, Procathepsin L; assay: Inhibition of human Cathepsin L using Cbz-Phe-Arg-AMC as substrate assessed as inhibition constant measured for 10 mins by fluorescence assay
Target sequence in this assay (P07711 whole entry): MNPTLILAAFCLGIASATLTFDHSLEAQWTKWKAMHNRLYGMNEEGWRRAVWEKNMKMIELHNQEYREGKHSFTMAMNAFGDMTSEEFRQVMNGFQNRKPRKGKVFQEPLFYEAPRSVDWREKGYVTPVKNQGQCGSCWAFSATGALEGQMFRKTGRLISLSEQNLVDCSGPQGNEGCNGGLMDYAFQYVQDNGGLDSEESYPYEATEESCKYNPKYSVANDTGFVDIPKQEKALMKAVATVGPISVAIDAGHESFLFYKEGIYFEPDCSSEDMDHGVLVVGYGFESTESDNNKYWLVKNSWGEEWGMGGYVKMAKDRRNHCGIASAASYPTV

[4] = molecular target: Replicase polyprotein 1ab (Severe acute respiratory syndrome coronavirus 2) (UniProt P0DTD1); assay: Covalent irreversible inhibition of SARS-CoV-2 MPro using Dabcyl-KTSAVLQSGFRKME-Edans as substrate assessed as reduction in enzyme recovery at 10 fold IC50 preincubated for 60 mins followed by dialysis for 25 hrs further incubated with substrate and measured over 10 mins by fluorescence based assay; settings: time 1570.0 min
[5] = molecular target: Replicase polyprotein 1ab (Severe acute respiratory syndrome coronavirus 2) (UniProt P0DTD1); assay: Inhibition of SARS-CoV-2 PLpro using Z-RLRGG-AMC acetate as substrate at 100 uM measured for 10 mins by fluorescence assay
[6] = molecular target: Genome polyprotein (dengue virus type 2) (UniProt P29990); assay: Inhibition of Dengue virus NS2B-NS3 protease Boc-GRR-AMC as substrate at 100 uM measured for 10 mins by fluorescence assay
Huh-7 = format: toxicity, cell-based; settings: human, huh-7, 24 h
[7] = molecular target: Replicase polyprotein 1ab (Severe acute respiratory syndrome coronavirus 2) (UniProt P0DTD1); assay: Covalent irreversible inhibition of SARS-CoV-2 MPro using Dabcyl-KTSAVLQSGFRKME-Edans as substrate assessed as reduction in enzyme recovery at 5 fold IC50 preincubated for 60 mins followed by dilution to 1 fold IC50 and substrate addition by fluorescence based assay
Cathepsin B = Cathepsin B (Homo sapiens, UniProt P07858); assay: Inhibition of human Cathepsin B using Cbz-Phe-Arg-7-amino-4-methylcoumarin as substrate assessed as inhibition constant measured for 10 mins by fluorescence assay

SMILES | Ki [1] | inhibition (Procathepsin L [2]) | Ki (Procathepsin L [3]) | inhibition [4] | inhibition [5] | inhibition [6] | CC50 (Huh-7) | inhibition [7] | Ki (Cathepsin B)
CCC[C@H](NC(=O)OCc1ccccc1)C(=O)N[C@H](/C=C/C(C)=O)C[C@@H]1CCNC1=O | 1770 nM |  |  |  |  |  |  |  | 
CC(=O)/C=C/[C@H](C[C@@H]1CCNC1=O)NC(=O)[C@H](CC(C)(C)C)NC(=O)OCc1ccccc1 | 416 nM |  |  |  |  |  |  |  | 
CC(=O)/C=C/[C@H](C[C@@H]1CCNC1=O)NC(=O)[C@H](CC1CC1)NC(=O)OCc1ccccc1 | 252 nM | Active | 3380 nM | Active | inactive | inactive | 100000 nM | Active | 7880 nM
CC(=O)/C=C/[C@H](C[C@@H]1CCNC1=O)NC(=O)[C@H](CC(C)C)NC(=O)OCc1ccccc1 | 386 nM |  |  |  |  |  |  |  | 
CCCC[C@H](NC(=O)OCc1ccccc1)C(=O)N[C@H](/C=C/C(C)=O)C[C@@H]1CCNC1=O | 260 nM | Active | 1920 nM |  | inactive | inactive | 60900 nM | Active | 11100 nM
CC(=O)/C=C/[C@H](C[C@@H]1CCNC1=O)NC(=O)[C@H](CC1CCCCC1)NC(=O)OCc1ccccc1 | 184 nM | Active | 252 nM | Active | inactive | inactive | 14500 nM | Active | 14400 nM
